Like-named read-outs stand apart in the source and are kept apart here.
Tested on: blood glucose level
Test: Hypoglycemic activity in obese diabetic mice (Table 1)
Type: in vivo, male viable yellow obese-diabetic mice
Conditions: for response vs control in vivo at 50 mg/kg / response vs control in vivo at 100 mg/kg: Mus musculus, ip; for ability to lower blood glucose levels in mammals: compared to structurally similar compounds known in the art, in words
Method: The hypoglycemic activity of the compounds of the present invention was determined by testing the efficacy of the compounds in vivo in male viable yellow obese-diabetic mice. The test procedure is described in detail below.
Test formulations were prepared by dissolving the test compound in a saline solution containing 2% Emulphor (a polyoxyethylated vegetable oil surfactant from GAP Corp.) to provide the dose level desired. Each test formulation was administered to six viable yellow obese-diabetic mice intraperitoneally at the beginning of the experiment. Blood glucose levels were determined immediately before the first dose and at 2 and 4 hours thereafter using glucose oxidase. A mean was taken of the 6 values obtained before the first dose and at the 2 and 4 hour intervals. In Table 1, Column 1 provides the example number of the test compound, Column 2 provides the dose level of compound tested, and Columns 3 and 4 provide a measurement of the test animal's blood glucose level 2 and 4 hours after test compound administration, respectively, as a percentage of the test animal' s pre-administration blood glucose level.

[1] = 2 h, 50 mg/kg, intraperitoneal, 2 hrs, read-out: Percent of Initial Blood Glucose Level After 2 hrs.
[2] = 4 h, 50 mg/kg, intraperitoneal, 4 hrs, read-out: Percent of Initial Blood Glucose Level After 4 hrs.

Structure (SMILES) | response vs control in vivo at 50 mg/kg [1] | response vs control in vivo at 50 mg/kg [2] | other results
CCCOc1ccc(C=C2SC(=S)NC2=O)cc1OCCC [Example 51, 5-[(3,4-dipropoxyphenyl)methylene]-2-thioxo-4-thiazolidinone] | 89 ± 7% | 85 ± 8% | 
O=C1NC(=S)SC1=Cc1cccc([N+](=O)[O-])c1 [Example 10, 5-[(3-nitrophenyl)methylene]-2-thioxo-4-thiazolidinone] | 89 ± 4% | 80 ± 4% | 
O=C1NC(=S)SC1=Cc1ccc2c(c1)OCO2 [Example 2, 5-[(1,3-benzodioxol-5-yl)methylene]-2-thioxo-4-thiazolidinone] | 96 ± 1% | 82 ± 3% | 
COc1cc(C(C)=C2SC(=S)NC2=O)cc(OC)c1OC [Example 19, 5-[(3,4,5-trimethoxyphenyl)methylmethylene]-2-thioxo-4-thiazolidinone] |  |  | Percent of Initial Blood Glucose Level After 2 hrs. (50 mg/kg, intraperitoneal, 2 hrs): 85 ± 14%; Percent of Initial Blood Glucose Level After 4 hrs. (50 mg/kg, intraperitoneal, 4 hrs): 75 ± 4%
O=C1NC(=S)SC1=Cc1ccccc1[N+](=O)[O-] [Example 9, 5-[(2-nitrophenyl)methylene]-2-thioxo-4-thiazolidinone] | 91 ± 8% | 83 ± 6% | 
COc1ccc(C=C2SC(=S)NC2=O)cc1O [Example 40, 5-[(3-hydroxy-4-methoxyphenyl)methylene]-2-thioxo-4-thiazolidinone] | 78 ± 5% | 72 ± 4% | 
CC(C)(C)c1cc(C=C2SC(=S)N(CC(=O)O)C2=O)cc(C(C)(C)C)c1O [Example 53, 5-[[3,5-bis(1,1-dimethylethyl)-4-hydroxyphenyl]methylene]-4-oxo-2-thioxo-3-thiazolidine acetic acid] | 73 ± 4% | 55 ± 5% | response vs control in vivo at 100 mg/kg (2 h, intraperitoneal, 2 hrs, read-out: Percent of Initial Blood Glucose Level After 2 hrs.): 83 ± 9%; response vs control in vivo at 100 mg/kg (4 h, intraperitoneal, 4 hrs, read-out: Percent of Initial Blood Glucose Level After 4 hrs.): 80 ± 14%; ability to lower blood glucose levels in mammals: surprising ability to lower blood glucose levels in mammals
CCC(C)c1cc(C=C2SC(=S)N(CC(=O)O)C2=O)cc(C(C)CC)c1O (stereo not shown) [Example 59, 5-[[3,5-bis(1-methylpropyl)-4-hydroxyphenyl]methylene]-4-oxo-2-thioxo-3-thiazolidine acetic acid] | 62 ± 5% | 59 ± 9% | ability to lower blood glucose levels in mammals: surprising ability to lower blood glucose levels in mammals
C=CCN1C(=O)C(=Cc2ccc(O)c(OC)c2)SC1=S [Example 30, 5-[(3-methoxy-4-hydroxyphenyl)methylene]-3-(2-propenyl)-2-thioxo-4-thiazolidinone] | 78 ± 7% | 81 ± 5% | 
CCCCOc1ccc(C=C2SC(=S)NC2=O)cc1 [5-[(4-butoxyphenyl)methylene]-2-thioxo-4-thiazolidinone] |  |  | ability to lower blood glucose levels in mammals: surprising ability to lower blood glucose levels in mammals
O=C1NC(=S)SC1=Cc1cccc(O)c1 [Example 11, 5-[(3-hydroxyphenyl)methylene]-2-thioxo-4-thiazolidinone] | 84 ± 3% | 85 ± 6% | 
O=C1NC(=S)SC1=Cc1ccccc1-c1ccccc1 [Example 29, 5-[[(1,1'-biphenyl)-2-yl]methylene]-2-thioxo-4-thiazolidinone] | 84 ± 5% | 77 ± 6% | 
O=C1NC(=S)SC1=Cc1ccc(Cl)c(Cl)c1 [Example 36, 5-[(3,4-dichlorophenyl)methylene]-2-thioxo-4-thiazolidinone] | 81 ± 7% | 90 ± 8% | 
COc1ccc(C=C2SC(=S)NC2=O)cc1C [Example 27, 5-[(3-methyl-4-methoxyphenyl)methylene]-2-thioxo-4-thiazolidinone] | 93 ± 3% | 84 ± 6% | 

Reference: patent US5523314A, “Compounds useful as hypoglycemic agents and for treating Alzheimer's disease” (priority 1994, dated 1996)
